Our source for the IC50 values is ChEMBL document CHEMBL1144255, “A non-crosslinking platinum-acridine hybrid agent shows enhanced cytotoxicity compared to clinical BCNU and cisplatin in glioblastoma cells” (Bioorg Med Chem Lett, 2005).

The IC50 is the midpoint of a concentration-inhibition curve.

Experiment [1] has as its system U-87 MG. Briefly: In vitro inhibitory concentration against growth of U87MG glioblastoma cell line in clonogenic survival assay after 24 hr. In kind it is functional, cell-based, Homo sapiens, U-87MG ATCC.
Experiment [2] can be described thus: In vitro inhibitory concentration against growth of SNB19 glioblastoma cell line in clonogenic survival assay after 24 hr. In kind it is functional, cell-based, Homo sapiens.
The mark [3] stands for this setting: Homo sapiens, Glioblastoma, 24 h.

With `CNC(=S)N(C)CCNc1c2ccccc2nc2ccccc12`, the IC50 in experiment [1] (Homo sapiens, U-87 MG, 24 h) stood at 1.83 µM; in experiment [2] (setting [3]), 2.46 µM.
As for `O=NN(CCCl)C(=O)NCCCl` [CARMUSTINE], the IC50 in experiment [1] (Homo sapiens, U-87 MG, 24 h) is 1.42 µM; in experiment [2] (setting [3]), 2.37 µM.
On to CISPLATIN, for which the results for the IC50 in experiment [1] (u-87mg atcc) and in experiment [2] (glioblastoma) were 0.49 µM and 0.81 µM, respectively.
